Values after ≈ are worked out from the molar mass of the structure shown. Where a SMILES comes first, the peptide text is derived from it.
What was measured:
gram-negative bacteria = assay: MIC, summary statements for gram-negative bacteria; format: cell-based; conditions: gram-negative bacteria
Description: For the antibacterial activity, a minimal inhibitory concentration (MIC) of a peptide in which fungus bodies were not split in an MH medium with sufficient nutrients was measured.
Specifically, the strains described in the following [Table 2] were purchased and diluted with an MH medium such that the number of bacteria was 2×10^6 colony-forming units (CFUs), 100 μl of each of the diluted strains was aliquoted into a 96-well microtiter plate, and then 100 μl of a peptide solution diluted with the MH medium (solution diluted stepwise at 2: 1) was added to each well.

MRSA 3114 = format: cell-based, Staphylococcus aureus; conditions: 3114
Method in brief: (§1)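 Broth microdilution in MH medium: bacterial strains diluted to 2×10^6 CFU were mixed with equal volumes of peptide serially diluted twofold in MH medium.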

MRSA 3126 = format: cell-based, Staphylococcus aureus; conditions: 3126
Method in brief: as §1

A. baumannii = assay: microbe, parasite or virus in culture; format: cell-based, Acinetobacter baumannii
Method in brief: as §1

MDRAB 12035 = assay: microbe, parasite or virus in culture; format: cell-based, Acinetobacter baumannii
Method in brief: as §1

S. aureus = assay: microbe, parasite or virus in culture; format: cell-based, Staphylococcus aureus
Method in brief: as §1

S. typhimurium = assay: microbe, parasite or virus in culture; format: cell-based, Salmonella typhimurium
Method in brief: as §1

MDRPA 2002 = format: cell-based, Pseudomonas aeruginosa
Method in brief: as §1

MDRST 8007 = assay: Minimal inhibitory concentration (MIC), single agent; format: cell-based, Salmonella typhimurium; conditions: agent alone
Method in brief: as §1

B. subtilis = assay: microbe, parasite or virus in culture; format: cell-based, Bacillus subtilis
Method in brief: as §1

E. coli [1] = assay: MIC of antibiotic during combined treatment with antimicrobial peptide; format: cell-based, Escherichia coli; conditions: for Antibiotic MIC, Erythromycin / Antibiotic MIC, Linezolid / Antibiotic MIC, Vancomycin: E. coli
Method in brief: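 Checkerboard-type MIC of peptide–antibiotic mixtures in MH medium: the antibiotic was serially diluted in MH medium and added to wells, then the reversed arrangement was also tested.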

MDREC 1229 = assay: microbe, parasite or virus in culture; format: cell-based, Escherichia coli
Method in brief: as §1

E. coli [2] = assay: microbe, parasite or virus in culture; format: cell-based, Escherichia coli; conditions: 16 h
Method in brief: as §1

## CC[C@H](C)[C@H](NC(=O)[C@H](CCCCN)NC(=O)[C@H](Cc1c[nH]c2ccccc12)NC(=O)[C@@H](N)CCCNC(=N)N)C(=O)N[C@@H](Cc1ccccc1)C(=O)N[C@@H](CCCCN)C(=O)N[C@@H](CCCCN)C(=O)N[C@H](C(=O)N1CCC[C@H]1C(=O)N[C@@H](CCCCN)C(=O)N[C@@H](Cc1ccccc1)C(=O)N[C@@H](CC(C)C)C(=O)N[C@@H](Cc1c[nH]cn1)C(=O)N[C@@H](CO)C(=O)N[C@@H](C)C(=O)N[C@@H](CCCCN)C(=O)N[C@@H](CCCCN)C(=O)N[C@@H](Cc1c[nH]c2ccccc12)C(N)=O)[C@@H](C)CC [PapMA-2, RWK IFK KIP KFL HSA KKW-NH2] (H-RWKIFKKIPKFLHSAKKW-NH2; N-terminus assumed)
gram-negative bacteria
  Antibacterial activity (in words): comparable to papiliocin or melittin
MRSA 3114
  Minimal inhibitory concentration MIC: >128 µg/mL
MRSA 3126
  Minimal inhibitory concentration MIC: >128 µg/mL
A. baumannii
  Minimal inhibitory concentration MIC: 16 µg/mL (≈ 6.83 µM)
  Peptide MIC, peptide alone: 16 µg/mL
A. baumannii; A. baumannii and antibiotic-resistant strains thereof
  Antibacterial activity relative to PapMA-1: 4 times
MDRAB 12035
  Minimal inhibitory concentration MIC: 16 µg/mL (≈ 6.83 µM)
  Peptide MIC, peptide alone: 16 µg/mL
S. aureus
  Minimal inhibitory concentration MIC: >128 µg/mL
S. typhimurium
  Minimal inhibitory concentration MIC: 32 µg/mL (≈ 13.7 µM)
MDRPA 2002
  Minimal inhibitory concentration MIC: 16 µg/mL (≈ 6.83 µM)
MDRST 8007
  Minimal inhibitory concentration MIC: 32 µg/mL (≈ 13.7 µM)
B. subtilis
  Minimal inhibitory concentration MIC: >128 µg/mL
E. coli [1]; E. coli and MDREC1229
  Synergistic effect of antibacterial activity with existing antibiotics compared with PapMA-1: higher level than the PapMA-1 peptide
E. coli [1]; erythromycin combined with peptide at 1 μg/ml
  Antibiotic MIC, Erythromycin: 64 µg/mL
E. coli [1]; erythromycin combined with peptide at 2 μg/ml
  Antibiotic MIC, Erythromycin: 32 µg/mL
E. coli [1]; erythromycin combined with peptide at 4 μg/ml
  Antibiotic MIC, Erythromycin: 16 µg/mL
E. coli [1]; erythromycin combined with peptide at 6 μg/ml
  Antibiotic MIC, Erythromycin: 2 µg/mL
E. coli [1]; erythromycin combined with peptide at 8 μg/ml
  Antibiotic MIC, Erythromycin: 0.5 µg/mL
E. coli [1]; erythromycin combined with peptide at 16 μg/ml
  Antibiotic MIC, Erythromycin: 0.25 µg/mL
E. coli [1]; erythromycin combined with peptide at 32 μg/ml
  Antibiotic MIC, Erythromycin: 0.125 µg/mL
E. coli [1]; erythromycin combined with peptide at 64 μg/ml
  Antibiotic MIC, Erythromycin: 0 µg/mL
E. coli [1]; linezolid combined with peptide at 1 μg/ml
  Antibiotic MIC, Linezolid: 128 µg/mL
E. coli [1]; linezolid combined with peptide at 2 μg/ml
  Antibiotic MIC, Linezolid: 64 µg/mL
E. coli [1]; linezolid combined with peptide at 4 μg/ml
  Antibiotic MIC, Linezolid: 16 µg/mL
E. coli [1]; linezolid combined with peptide at 6 μg/ml
  Antibiotic MIC, Linezolid: 16 µg/mL
E. coli [1]; linezolid combined with peptide at 8 μg/ml
  Antibiotic MIC, Linezolid: 8 µg/mL
E. coli [1]; linezolid combined with peptide at 16 μg/ml
  Antibiotic MIC, Linezolid: 8 µg/mL
E. coli [1]; linezolid combined with peptide at 32 μg/ml
  Antibiotic MIC, Linezolid: 4 µg/mL
E. coli [1]; linezolid combined with peptide at 64 μg/ml
  Antibiotic MIC, Linezolid: 0 µg/mL
E. coli [1]; vancomycin combined with peptide at 1 μg/ml
  Antibiotic MIC, Vancomycin: >128 µg/mL
E. coli [1]; vancomycin combined with peptide at 2 μg/ml
  Antibiotic MIC, Vancomycin: >128 µg/mL
E. coli [1]; vancomycin combined with peptide at 4 μg/ml
  Antibiotic MIC, Vancomycin: >128 µg/mL
E. coli [1]; vancomycin combined with peptide at 6 μg/ml
  Antibiotic MIC, Vancomycin: 64 µg/mL
E. coli [1]; vancomycin combined with peptide at 8 μg/ml
  Antibiotic MIC, Vancomycin: 32 µg/mL
E. coli [1]; vancomycin combined with peptide at 16 μg/ml
  Antibiotic MIC, Vancomycin: 8 µg/mL
E. coli [1]; vancomycin combined with peptide at 32 μg/ml
  Antibiotic MIC, Vancomycin: 4 µg/mL
E. coli [1]; vancomycin combined with peptide at 64 μg/ml
  Antibiotic MIC, Vancomycin: 0 µg/mL
E. coli [1]; same peptide concentration as PapMA-1
  Lowering of the MIC value of the antibiotics mixed with peptide compared with PapMA-1: twice to four times
MDREC 1229
  Minimal inhibitory concentration MIC: 64 µg/mL (≈ 27.3 µM)
E. coli [2]
  Minimal inhibitory concentration MIC: 64 µg/mL (≈ 27.3 µM)

Reference: patent publication US11214594B2, “Antimicrobial peptide having synergistic antibacterial effect with antibiotics on multidrug resistant bacteria, and use thereof” (priority 2016, dated 2022)
